Data on seven compounds can be found in ChEMBL document CHEMBL5465560, “Selectivity Literature for EUbOPEN Chemogenomic Library” (2024).

The target in assay [1] is eIF-2-alpha kinase GCN2 (Homo sapiens) (UniProt Q9P2K8). Briefly: Selectivity interaction (Kinase panel (KiNativ target engagement assay in Jurkat cells)) EUB0001635a EIF2AK4. It counts as cell-based. Conditions: at 1 µM.
For assay [2], the target named is T1, Serine/threonine-protein kinase ULK1 (Homo sapiens) (UniProt O75385).
T1 sequence (whole entry): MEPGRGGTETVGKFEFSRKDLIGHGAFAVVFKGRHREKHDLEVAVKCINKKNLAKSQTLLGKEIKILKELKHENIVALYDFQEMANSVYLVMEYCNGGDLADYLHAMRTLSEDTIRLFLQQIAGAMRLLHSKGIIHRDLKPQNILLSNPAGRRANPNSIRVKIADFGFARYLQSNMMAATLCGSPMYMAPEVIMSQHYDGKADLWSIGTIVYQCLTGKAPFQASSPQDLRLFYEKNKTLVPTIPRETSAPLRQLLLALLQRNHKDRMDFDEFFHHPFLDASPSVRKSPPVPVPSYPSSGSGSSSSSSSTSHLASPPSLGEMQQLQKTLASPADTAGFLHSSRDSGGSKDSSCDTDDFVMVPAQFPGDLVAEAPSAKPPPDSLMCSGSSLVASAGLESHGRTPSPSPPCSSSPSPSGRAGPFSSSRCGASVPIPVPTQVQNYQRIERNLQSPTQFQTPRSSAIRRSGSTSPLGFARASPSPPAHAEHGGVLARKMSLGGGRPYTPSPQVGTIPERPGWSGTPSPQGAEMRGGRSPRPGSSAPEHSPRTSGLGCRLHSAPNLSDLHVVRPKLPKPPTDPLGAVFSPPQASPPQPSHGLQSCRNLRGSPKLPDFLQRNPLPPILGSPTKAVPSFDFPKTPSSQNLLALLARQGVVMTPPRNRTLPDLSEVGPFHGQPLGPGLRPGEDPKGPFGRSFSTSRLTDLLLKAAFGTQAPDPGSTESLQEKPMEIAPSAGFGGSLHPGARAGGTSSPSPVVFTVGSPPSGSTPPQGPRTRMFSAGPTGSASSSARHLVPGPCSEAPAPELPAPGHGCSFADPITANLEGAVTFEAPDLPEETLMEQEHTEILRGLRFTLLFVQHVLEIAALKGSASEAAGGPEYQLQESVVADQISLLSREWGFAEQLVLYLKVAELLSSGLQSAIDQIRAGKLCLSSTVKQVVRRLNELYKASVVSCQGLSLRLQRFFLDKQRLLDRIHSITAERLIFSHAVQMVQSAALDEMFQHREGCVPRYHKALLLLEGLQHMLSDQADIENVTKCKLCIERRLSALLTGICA
Conditions: at 10 µM.

Assay [3] deals with Dual specificity mitogen-activated protein kinase kinase 1 (Homo sapiens, UniProt Q02750). Briefly: Selectivity interaction (ActivX KiNativ screen (ex vivo kinase selectivity in human PBMCs)) EUB0001619a MAP2K1. It counts as cell-based. Conditions: PBMC, at 1 µM.
Chain of Dual specificity mitogen-activated protein kinase kinase 1 (Q02750 whole entry): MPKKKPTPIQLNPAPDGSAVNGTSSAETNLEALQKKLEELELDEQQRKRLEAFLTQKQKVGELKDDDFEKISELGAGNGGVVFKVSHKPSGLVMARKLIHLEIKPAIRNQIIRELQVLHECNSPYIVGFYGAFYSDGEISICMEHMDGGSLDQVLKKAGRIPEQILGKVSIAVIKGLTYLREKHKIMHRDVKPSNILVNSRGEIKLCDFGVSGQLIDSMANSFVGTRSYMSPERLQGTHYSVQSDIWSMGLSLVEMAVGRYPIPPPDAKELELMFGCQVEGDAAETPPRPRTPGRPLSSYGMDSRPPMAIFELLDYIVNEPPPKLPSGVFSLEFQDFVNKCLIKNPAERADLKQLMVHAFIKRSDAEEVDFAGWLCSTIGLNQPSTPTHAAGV
The target of assay [4] is Homeodomain-interacting protein kinase 1 (Homo sapiens, UniProt Q86Z02). Briefly: Selectivity interaction (ProQinase) EUB0000171b HIPK1.
Chain of Homeodomain-interacting protein kinase 1 (Q86Z02 whole entry, looked up): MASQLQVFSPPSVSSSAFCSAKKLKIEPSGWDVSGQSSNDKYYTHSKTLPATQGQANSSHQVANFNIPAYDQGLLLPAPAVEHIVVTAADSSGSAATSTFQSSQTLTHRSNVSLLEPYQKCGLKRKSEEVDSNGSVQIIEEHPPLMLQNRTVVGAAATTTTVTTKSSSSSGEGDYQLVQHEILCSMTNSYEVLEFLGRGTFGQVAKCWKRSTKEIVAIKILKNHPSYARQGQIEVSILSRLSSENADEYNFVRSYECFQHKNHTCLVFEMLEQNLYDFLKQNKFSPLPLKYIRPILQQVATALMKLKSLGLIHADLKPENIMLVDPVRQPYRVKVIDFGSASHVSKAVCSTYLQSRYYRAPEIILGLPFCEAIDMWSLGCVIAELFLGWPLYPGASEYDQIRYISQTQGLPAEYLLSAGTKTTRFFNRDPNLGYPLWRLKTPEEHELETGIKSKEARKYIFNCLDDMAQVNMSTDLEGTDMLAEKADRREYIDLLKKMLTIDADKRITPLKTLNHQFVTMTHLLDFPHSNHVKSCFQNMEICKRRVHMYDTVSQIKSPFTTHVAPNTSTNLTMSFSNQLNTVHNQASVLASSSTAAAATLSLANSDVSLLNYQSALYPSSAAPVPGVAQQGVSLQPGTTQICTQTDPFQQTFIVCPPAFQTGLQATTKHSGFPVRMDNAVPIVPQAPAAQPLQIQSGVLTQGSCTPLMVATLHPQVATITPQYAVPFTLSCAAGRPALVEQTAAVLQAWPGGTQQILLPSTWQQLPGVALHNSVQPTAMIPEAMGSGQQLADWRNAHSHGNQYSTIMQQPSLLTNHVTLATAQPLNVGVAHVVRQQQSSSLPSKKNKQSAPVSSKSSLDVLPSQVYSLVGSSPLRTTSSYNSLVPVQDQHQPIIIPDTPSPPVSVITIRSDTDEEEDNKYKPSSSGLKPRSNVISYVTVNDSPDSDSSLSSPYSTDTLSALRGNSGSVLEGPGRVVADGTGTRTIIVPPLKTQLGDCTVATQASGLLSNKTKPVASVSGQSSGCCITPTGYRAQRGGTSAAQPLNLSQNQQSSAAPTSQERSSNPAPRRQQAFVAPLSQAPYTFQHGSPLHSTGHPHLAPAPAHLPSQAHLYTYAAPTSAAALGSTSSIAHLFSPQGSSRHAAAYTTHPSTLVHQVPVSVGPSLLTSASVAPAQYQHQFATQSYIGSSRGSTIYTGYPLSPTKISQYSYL
The target of assay [5] is Tyrosine-protein kinase CSK (Homo sapiens) (UniProt P41240). Briefly: Selectivity interaction (KinomeScan (DiscoverX)) EUB0000092b CSK. To be noted: at 10 µM.
Chain of Tyrosine-protein kinase CSK (Homo sapiens) (P41240 2-450 limits assumed): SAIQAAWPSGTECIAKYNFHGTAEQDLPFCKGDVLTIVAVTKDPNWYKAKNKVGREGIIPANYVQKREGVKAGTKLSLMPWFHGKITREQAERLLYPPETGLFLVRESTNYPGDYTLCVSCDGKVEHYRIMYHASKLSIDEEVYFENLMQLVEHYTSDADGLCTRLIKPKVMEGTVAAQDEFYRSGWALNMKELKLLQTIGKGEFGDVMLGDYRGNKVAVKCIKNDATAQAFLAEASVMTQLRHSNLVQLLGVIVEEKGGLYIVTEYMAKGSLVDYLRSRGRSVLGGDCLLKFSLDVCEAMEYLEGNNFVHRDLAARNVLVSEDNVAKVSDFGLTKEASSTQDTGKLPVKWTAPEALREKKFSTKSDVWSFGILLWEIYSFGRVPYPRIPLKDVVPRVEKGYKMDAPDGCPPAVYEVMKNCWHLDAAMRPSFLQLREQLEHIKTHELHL
In assay [6] the target is T2, Ephrin type-B receptor 2 (Homo sapiens) (UniProt P29323).
T2 sequence (whole entry): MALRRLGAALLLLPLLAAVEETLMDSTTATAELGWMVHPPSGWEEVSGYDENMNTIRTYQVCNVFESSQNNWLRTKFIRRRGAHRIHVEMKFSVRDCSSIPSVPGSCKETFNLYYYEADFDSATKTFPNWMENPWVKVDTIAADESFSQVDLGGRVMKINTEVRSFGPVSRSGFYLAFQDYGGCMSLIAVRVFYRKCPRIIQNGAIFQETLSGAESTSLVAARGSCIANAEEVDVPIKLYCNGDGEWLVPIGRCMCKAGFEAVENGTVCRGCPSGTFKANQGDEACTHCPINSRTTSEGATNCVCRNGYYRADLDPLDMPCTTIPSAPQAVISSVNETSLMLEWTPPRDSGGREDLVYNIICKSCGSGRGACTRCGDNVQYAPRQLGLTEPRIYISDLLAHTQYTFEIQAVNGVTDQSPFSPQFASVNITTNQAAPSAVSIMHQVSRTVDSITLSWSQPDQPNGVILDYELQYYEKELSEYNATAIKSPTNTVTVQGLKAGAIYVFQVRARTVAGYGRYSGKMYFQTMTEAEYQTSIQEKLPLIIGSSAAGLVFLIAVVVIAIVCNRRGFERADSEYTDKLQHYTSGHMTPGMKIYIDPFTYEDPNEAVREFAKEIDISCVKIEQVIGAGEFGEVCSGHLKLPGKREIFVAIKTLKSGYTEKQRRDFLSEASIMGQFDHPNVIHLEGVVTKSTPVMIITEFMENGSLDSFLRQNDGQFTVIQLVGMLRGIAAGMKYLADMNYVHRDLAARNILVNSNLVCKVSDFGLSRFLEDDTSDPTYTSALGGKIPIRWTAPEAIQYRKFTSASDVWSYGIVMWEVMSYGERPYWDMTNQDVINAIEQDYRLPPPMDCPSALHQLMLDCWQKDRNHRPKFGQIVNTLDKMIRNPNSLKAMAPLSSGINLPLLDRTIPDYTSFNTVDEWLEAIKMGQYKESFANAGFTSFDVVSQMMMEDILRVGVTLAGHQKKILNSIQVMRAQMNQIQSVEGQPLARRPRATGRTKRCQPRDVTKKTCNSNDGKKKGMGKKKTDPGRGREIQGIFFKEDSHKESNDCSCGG
Briefly: Selectivity interaction (KinomeScan (DiscoverX)) EUB0000092b EPHB2. To be noted: at 10 µM.

In assay [7] the target is cAMP-dependent protein kinase catalytic subunit alpha (Homo sapiens, UniProt P17612). Briefly: Selectivity interaction (KinomeScan (DiscoverX)) EUB0000618a PRKACA. To be noted: at 10 µM.
The target of assay [8] is Fibroblast growth factor receptor 4 (Homo sapiens, UniProt P22455). To be noted: at 10 µM.
Chain of Fibroblast growth factor receptor 4 (P22455 22-802 limits assumed): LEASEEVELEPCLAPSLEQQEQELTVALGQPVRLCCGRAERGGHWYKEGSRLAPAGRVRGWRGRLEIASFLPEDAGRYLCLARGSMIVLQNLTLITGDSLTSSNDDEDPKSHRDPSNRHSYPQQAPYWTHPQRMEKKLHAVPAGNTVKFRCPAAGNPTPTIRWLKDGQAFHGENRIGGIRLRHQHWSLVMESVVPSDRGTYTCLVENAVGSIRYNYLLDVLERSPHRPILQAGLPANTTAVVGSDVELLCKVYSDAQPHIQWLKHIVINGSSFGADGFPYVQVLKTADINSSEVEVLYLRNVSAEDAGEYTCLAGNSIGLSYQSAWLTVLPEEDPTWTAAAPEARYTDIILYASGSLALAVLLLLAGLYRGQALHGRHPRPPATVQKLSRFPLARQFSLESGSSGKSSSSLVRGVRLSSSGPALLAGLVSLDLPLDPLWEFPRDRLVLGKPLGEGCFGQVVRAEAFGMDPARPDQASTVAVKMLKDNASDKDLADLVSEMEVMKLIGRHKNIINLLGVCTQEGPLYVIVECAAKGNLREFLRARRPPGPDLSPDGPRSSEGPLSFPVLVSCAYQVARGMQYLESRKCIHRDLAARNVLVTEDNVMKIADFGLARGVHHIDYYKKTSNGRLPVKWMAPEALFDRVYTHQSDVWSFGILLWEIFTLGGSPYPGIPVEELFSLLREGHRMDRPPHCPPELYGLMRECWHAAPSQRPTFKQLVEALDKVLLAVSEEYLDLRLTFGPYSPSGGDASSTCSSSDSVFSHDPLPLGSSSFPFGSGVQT

Chain of eIF-2-alpha kinase GCN2 (Homo sapiens) (Q9P2K8 whole entry): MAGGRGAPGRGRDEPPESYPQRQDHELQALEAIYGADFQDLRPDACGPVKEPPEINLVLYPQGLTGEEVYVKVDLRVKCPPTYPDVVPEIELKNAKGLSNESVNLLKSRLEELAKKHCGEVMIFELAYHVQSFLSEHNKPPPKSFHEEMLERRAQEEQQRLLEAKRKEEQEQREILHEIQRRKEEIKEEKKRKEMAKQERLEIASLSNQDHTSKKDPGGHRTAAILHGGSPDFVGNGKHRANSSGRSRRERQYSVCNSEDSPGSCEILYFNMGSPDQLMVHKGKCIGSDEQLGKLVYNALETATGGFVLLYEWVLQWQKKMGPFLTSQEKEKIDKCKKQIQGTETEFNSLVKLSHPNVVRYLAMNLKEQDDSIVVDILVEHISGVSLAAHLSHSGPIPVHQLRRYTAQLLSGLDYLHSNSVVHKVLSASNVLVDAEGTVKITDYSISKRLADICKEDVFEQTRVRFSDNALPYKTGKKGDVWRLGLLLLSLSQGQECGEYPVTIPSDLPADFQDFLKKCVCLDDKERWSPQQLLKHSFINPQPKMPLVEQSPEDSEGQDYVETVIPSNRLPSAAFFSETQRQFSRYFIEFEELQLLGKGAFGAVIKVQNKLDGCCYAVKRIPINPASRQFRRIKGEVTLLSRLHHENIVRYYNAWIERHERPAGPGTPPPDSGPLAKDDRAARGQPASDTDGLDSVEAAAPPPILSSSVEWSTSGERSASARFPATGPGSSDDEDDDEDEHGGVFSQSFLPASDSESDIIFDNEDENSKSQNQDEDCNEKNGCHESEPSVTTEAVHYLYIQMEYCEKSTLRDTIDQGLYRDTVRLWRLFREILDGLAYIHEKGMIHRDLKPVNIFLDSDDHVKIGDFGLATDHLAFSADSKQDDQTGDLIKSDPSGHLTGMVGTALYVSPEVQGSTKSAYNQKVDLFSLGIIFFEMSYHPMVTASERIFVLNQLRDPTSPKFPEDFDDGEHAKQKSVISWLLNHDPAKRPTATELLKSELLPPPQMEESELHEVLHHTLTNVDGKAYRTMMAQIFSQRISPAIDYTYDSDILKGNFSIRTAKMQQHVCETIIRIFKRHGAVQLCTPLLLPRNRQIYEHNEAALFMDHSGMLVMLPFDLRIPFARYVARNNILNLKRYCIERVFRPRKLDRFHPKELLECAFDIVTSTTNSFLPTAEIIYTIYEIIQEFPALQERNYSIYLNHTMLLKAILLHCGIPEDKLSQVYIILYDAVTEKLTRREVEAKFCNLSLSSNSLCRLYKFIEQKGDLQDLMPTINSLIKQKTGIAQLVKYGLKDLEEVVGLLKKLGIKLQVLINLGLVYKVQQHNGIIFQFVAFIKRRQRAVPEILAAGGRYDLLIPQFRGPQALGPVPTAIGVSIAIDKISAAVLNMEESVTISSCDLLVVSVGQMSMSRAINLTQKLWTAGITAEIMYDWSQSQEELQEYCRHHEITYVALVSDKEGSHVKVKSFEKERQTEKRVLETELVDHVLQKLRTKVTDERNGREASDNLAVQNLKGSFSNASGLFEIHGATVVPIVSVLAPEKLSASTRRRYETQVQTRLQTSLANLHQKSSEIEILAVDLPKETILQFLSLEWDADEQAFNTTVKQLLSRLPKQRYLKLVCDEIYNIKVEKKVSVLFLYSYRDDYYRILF

As for `C=CC(=O)Nc1ccc(C(=O)Nc2[nH]nc3c2CN(C(=O)N[C@H](CN(C)C)c2ccccc2)C3(C)C)cc1`, the % of engagement in assay [1] (Selectivity number of off-targets 0.0, Selectivity number of targets 233.0, Source Knowledge https://www.sciencedirect.com/science/article/pii/S2451945619300674?via%3Dihub) was -7.2%; in assay [1] it was -16.6%.

For `Cc1cc([C@@H](C)Nc2ccccc2C(=O)O)c2nc(N3CCOCC3)cc(=O)n2c1` [AZD-6482], the % of control in assay [2] came to 91%.

For the compound `N#Cc1cccc(-c2c[nH]c3ncnc(N4CCOCC4)c23)c1`, the % of inhibition in assay [3] amounted to 14%.

`C=CC(=O)Nc1cccc(C(=O)Nc2ccc(Nc3cc(-c4[nH]c(SC)nc4C)ccn3)cc2)c1`: the % of control was 103% in assay [4] (at 1 µM) and 143% in assay [4] (at 5 µM).

In the case of `CCC(=O)N1CCN(c2ccc(-n3c(=O)ccc4cnc5ccc(-c6cnc7ccccc7c6)cc5c43)cc2C(F)(F)F)CC1`, the % of control stood at 71% in assay [5] and 100% in assay [6].

As to `O[C@H]1CC[C@H](Nc2ncc3nc(Nc4c(F)cc(F)cc4F)n([C@H]4CCOC4)c3n2)CC1`, the % of control in assay [7] was 100%.

In assay [8], `COCC(=O)NC/C=C/c1ccc2ncnc(Nc3ccc(Oc4ccc(C)nc4)c(C)c3)c2c1` [CP-724714] gave a % of control of 100%.
